From patent publication US20230141101A1, “PDE4 INHIBITOR COMPOUND AND MEDICAL USE THEREOF” (Suzhou Longbotai Pharmaceuticals Co., Ltd., priority 2020, published 2023)

Tests used:
Format in all cases: biochemical
Conditions in all cases: 20 nM
[1] = target: T1, PDE4A1A (Homo sapiens, UniProt P27815); assay: PDE4 inhibitory activity assay (FAM-cAMP enzymatic reaction), PDE4A1A
T1 construct: purchased BPS 60040
In short: (§1)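 Human PDE4A1A, PDE4B1 or PDE4D2 preincubated with compound 15 min at room temperature, then FAM-cAMP substrate added; reaction 30 min at room temperature before stop solution and further 60 min. Fluorescence read on multilabel counter; IC50 fitted from inhibition rates.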

[2] = target: T2, PDE4B1 (Homo sapiens, UniProt Q07343); assay: PDE4 inhibitory activity assay (FAM-cAMP enzymatic reaction), PDE4B1
T2 construct: purchased BPS 60041
In short: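 Each isoform is incubated with test compound for 15 min at room temperature before FAM-cAMP substrate starts a 30-min reaction.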

[3] = target: PDE4D2 (Homo sapiens, UniProt Q08499); assay: PDE4 inhibitory activity assay (FAM-cAMP enzymatic reaction), PDE4D2
In short: as §1

Sequence of PDE4D2 (Q08499 303-809): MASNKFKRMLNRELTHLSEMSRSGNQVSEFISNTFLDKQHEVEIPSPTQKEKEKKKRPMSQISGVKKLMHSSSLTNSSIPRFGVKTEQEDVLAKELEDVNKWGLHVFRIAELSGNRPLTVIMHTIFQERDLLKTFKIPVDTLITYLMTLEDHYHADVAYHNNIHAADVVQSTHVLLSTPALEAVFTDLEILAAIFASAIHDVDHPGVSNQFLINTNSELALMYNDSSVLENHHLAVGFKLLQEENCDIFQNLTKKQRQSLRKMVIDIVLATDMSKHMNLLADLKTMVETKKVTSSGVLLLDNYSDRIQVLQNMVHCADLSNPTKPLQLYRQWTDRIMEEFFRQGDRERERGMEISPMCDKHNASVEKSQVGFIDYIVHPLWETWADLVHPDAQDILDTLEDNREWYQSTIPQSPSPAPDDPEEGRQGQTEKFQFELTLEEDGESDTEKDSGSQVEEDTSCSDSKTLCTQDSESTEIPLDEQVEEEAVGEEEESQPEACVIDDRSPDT
T2 sequence (Q07343 whole entry): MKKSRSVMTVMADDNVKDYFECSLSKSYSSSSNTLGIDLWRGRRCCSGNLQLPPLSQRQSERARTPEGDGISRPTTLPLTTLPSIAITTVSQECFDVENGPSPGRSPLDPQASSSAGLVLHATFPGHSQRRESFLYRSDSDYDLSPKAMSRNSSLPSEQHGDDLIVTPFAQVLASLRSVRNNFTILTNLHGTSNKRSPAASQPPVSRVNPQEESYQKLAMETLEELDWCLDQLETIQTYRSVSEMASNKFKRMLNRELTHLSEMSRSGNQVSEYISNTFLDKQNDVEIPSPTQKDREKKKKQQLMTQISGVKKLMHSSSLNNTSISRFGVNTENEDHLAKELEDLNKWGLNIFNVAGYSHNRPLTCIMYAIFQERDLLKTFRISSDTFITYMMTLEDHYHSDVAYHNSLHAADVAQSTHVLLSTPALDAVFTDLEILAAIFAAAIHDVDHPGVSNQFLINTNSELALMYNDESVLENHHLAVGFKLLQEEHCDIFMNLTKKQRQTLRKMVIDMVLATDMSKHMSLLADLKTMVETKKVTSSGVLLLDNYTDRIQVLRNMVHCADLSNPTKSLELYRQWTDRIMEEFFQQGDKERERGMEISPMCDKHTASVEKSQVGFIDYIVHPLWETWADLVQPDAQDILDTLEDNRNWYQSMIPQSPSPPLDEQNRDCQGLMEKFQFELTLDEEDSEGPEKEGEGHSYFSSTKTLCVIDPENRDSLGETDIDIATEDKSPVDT
T1 sequence (P27815 1-647 isoform P27815-4): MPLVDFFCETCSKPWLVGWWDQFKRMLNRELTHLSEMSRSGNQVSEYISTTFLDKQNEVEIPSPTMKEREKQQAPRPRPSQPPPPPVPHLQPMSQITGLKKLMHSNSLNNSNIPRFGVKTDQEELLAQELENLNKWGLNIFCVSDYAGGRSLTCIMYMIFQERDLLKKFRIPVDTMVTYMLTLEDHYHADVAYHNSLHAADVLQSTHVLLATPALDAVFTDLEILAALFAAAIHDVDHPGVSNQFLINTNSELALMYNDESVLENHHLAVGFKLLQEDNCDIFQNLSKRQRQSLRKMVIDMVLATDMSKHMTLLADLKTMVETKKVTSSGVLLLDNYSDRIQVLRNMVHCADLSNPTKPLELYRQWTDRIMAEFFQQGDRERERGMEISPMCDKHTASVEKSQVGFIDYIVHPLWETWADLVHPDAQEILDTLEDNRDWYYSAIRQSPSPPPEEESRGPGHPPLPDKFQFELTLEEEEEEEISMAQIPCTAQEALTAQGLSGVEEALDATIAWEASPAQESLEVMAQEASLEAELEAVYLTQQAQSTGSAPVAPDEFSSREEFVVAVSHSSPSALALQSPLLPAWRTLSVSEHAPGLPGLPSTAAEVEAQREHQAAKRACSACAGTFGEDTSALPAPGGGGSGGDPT

CCOc1nc([C@@H](CS(C)(=O)=O)n2c(=O)n(C)c3cc(-c4ccc(F)cc4OC)cnc32)ccc1OC [Ex. 120, (S)-6-(4-fluoro-2-methoxyphenyl)-3-(1-(6-ethoxy-5-methoxypyridin-2-yl)-2-(methylsulfonyl)ethyl)-1-methyl-1H-imidazo[4,5-b]pyridin-2(3H)-one]
+: PDE4 A1 inhibitory effect at 20 nM [1] | PDE4 B1 inhibitory effect at 20 nM [2] | PDE4 D2 inhibitory effect at 20 nM [3]

CCOc1nc([C@@H](CS(C)(=O)=O)n2c(=O)[nH]c3cc(-c4c(F)cccc4OC)cnc32)ccc1OC [Ex. 121, (S)-6-(6-fluoro-2-methoxyphenyl)-3-(1-(6-ethoxy-5-methoxypyridin-2-yl)-2-(methylsulfonyl)ethyl)-1H-imidazo[4,5-b]pyridin-2(3H)-one]
+: PDE4 A1 inhibitory effect at 20 nM [1] | PDE4 B1 inhibitory effect at 20 nM [2] | PDE4 D2 inhibitory effect at 20 nM [3]

CCOc1nc([C@@H](CS(C)(=O)=O)n2c(=O)[nH]c3cc(-c4ccccn4)cnc32)ccc1OC [Ex. 122, (S)-6-(pyridin-2-yl)-3-(1-(6-ethoxy-5-methoxypyridin-2-yl)-2-(methylsulfonyl)ethyl)-1H-imidazo[4,5-b]pyridin-2(3H)-one]
+: PDE4 A1 inhibitory effect at 20 nM [1] | PDE4 B1 inhibitory effect at 20 nM [2] | PDE4 D2 inhibitory effect at 20 nM [3]

CCOc1nc([C@@H](CS(C)(=O)=O)n2c(=O)n(C)c3cc(-c4ccccn4)cnc32)ccc1OC [Ex. 123, (S)-3-(1-(6-ethoxy-5-methoxypyridin-2-yl)-2-(methylsulfonyl)ethyl)-1-methyl-6-(pyridin-2-yl)-1H-imidazo[4,5-b]pyridin-2(3H)-one]
+: PDE4 A1 inhibitory effect at 20 nM [1] | PDE4 B1 inhibitory effect at 20 nM [2] | PDE4 D2 inhibitory effect at 20 nM [3]

CCOc1nc([C@@H](CS(C)(=O)=O)n2c(=O)n(CC)c3cc(-c4ccccn4)cnc32)ccc1OC [Ex. 124, (S)-3-(1-(6-ethoxy-5-methoxypyridin-2-yl)-2-(methylsulfonyl)ethyl)-1-ethyl-6-(pyridin-2-yl)-1H-imidazo[4,5-b]pyridin-2(3H)-one]
+: PDE4 A1 inhibitory effect at 20 nM [1] | PDE4 B1 inhibitory effect at 20 nM [2] | PDE4 D2 inhibitory effect at 20 nM [3]

CCOc1nc([C@@H](CS(C)(=O)=O)n2c(=O)n(CCOC)c3cc(-c4ccccn4)cnc32)ccc1OC [Ex. 125, (S)-3-(1-(6-ethoxy-5-methoxypyridin-2-yl)-2-(methylsulfonyl)ethyl)-1-(2-methoxyethyl)-6-(pyridin-2-yl)-1H-imidazo[4,5-b]pyridin-2(3H)-one]
+: PDE4 A1 inhibitory effect at 20 nM [1] | PDE4 B1 inhibitory effect at 20 nM [2] | PDE4 D2 inhibitory effect at 20 nM [3]

CCOc1nc([C@@H](CS(C)(=O)=O)n2c(=O)n(C)c3cc(-c4ccccc4F)cnc32)ccc1OC [Ex. 126, (S)-3-(1-(6-ethoxy-5-methoxypyridin-2-yl)-2-(methylsulfonyl)ethyl)-6-(2-fluorophenyl)-1-methyl-1H-imidazo[4,5-b]pyridin-2(3H)-one]
+: PDE4 A1 inhibitory effect at 20 nM [1] | PDE4 B1 inhibitory effect at 20 nM [2] | PDE4 D2 inhibitory effect at 20 nM [3]

CCOc1nc([C@@H](CS(C)(=O)=O)n2c(=O)n(C)c3cc(-c4ccc(F)cc4)cnc32)ccc1OC [Ex. 128, (S)-3-(1-(6-ethoxy-5-methoxypyridin-2-yl)-2-(methylsulfonyl)ethyl)-6-(4-fluorophenyl)-1-methyl-1H-imidazo[4,5-b]pyridin-2(3H)-one]
+: PDE4 A1 inhibitory effect at 20 nM [1] | PDE4 B1 inhibitory effect at 20 nM [2] | PDE4 D2 inhibitory effect at 20 nM [3]

CCOc1nc([C@@H](CS(C)(=O)=O)n2c(=O)[nH]c3cc(Br)ccc32)ccc1OC [Ex. 129, (S)-5-bromo-1-(1-(6-ethoxy-5-methoxypyridin-2-yl)-2-(methylsulfonyl)ethyl)-1H-benzo[d]imidazol-2(3H)-one]
+: PDE4 A1 inhibitory effect at 20 nM [1] | PDE4 B1 inhibitory effect at 20 nM [2] | PDE4 D2 inhibitory effect at 20 nM [3]

CCOc1nc([C@@H](CS(C)(=O)=O)n2c(=O)[nH]c3cc(-c4ccccc4)ccc32)ccc1OC [Ex. 130, (S)-1-(1-(6-ethoxy-5-methoxypyridin-2-yl)-2-(methylsulfonyl)ethyl)-5-phenyl-1H-benzo[d]imidazol-2(3H)-one]
+: PDE4 A1 inhibitory effect at 20 nM [1] | PDE4 B1 inhibitory effect at 20 nM [2] | PDE4 D2 inhibitory effect at 20 nM [3]

CCOc1nc([C@@H](CS(C)(=O)=O)n2c(=O)n(C)c3cc(-c4ccccc4)ccc32)ccc1OC [Ex. 131, (S)-1-(1-(6-ethoxy-5-methoxypyridin-2-yl)-2-(methylsulfonyl)ethyl)-5-phenyl-3-methyl-1H-benzo[d]imidazol-2(3H)-one]
+: PDE4 A1 inhibitory effect at 20 nM [1] | PDE4 B1 inhibitory effect at 20 nM [2] | PDE4 D2 inhibitory effect at 20 nM [3]

CCOc1nc([C@@H](CS(C)(=O)=O)n2c(=O)[nH]c3cc(-c4ccccc4F)ccc32)ccc1OC [Ex. 132, (S)-1-(1-(6-ethoxy-5-methoxypyridin-2-yl)-2-(methylsulfonyl)ethyl)-5-(2-fluorophenyl)-1H-benzo[d]imidazol-2(3H)-one]
+: PDE4 A1 inhibitory effect at 20 nM [1] | PDE4 B1 inhibitory effect at 20 nM [2] | PDE4 D2 inhibitory effect at 20 nM [3]

CCOc1nc([C@H](CS(C)(=O)=O)n2c(=O)[nH]c3cc(-c4ccccc4F)ccc32)ccc1OC [Ex. 134, (R)-1-(1-(6-ethoxy-5-methoxypyridin-2-yl)-2-(methylsulfonyl)ethyl)-5-(2-fluorophenyl)-1H-benzo[d]imidazol-2(3H)-one]
+: PDE4 A1 inhibitory effect at 20 nM [1] | PDE4 B1 inhibitory effect at 20 nM [2] | PDE4 D2 inhibitory effect at 20 nM [3]

CCOc1nc([C@@H](CS(C)(=O)=O)n2c(=O)[nH]c3cc(-c4ccc(F)cc4)ccc32)ccc1OC [Ex. 135, (S)-1-(1-(6-ethoxy-5-methoxypyridin-2-yl)-2-(methylsulfonyl)ethyl)-5-(4-fluorophenyl)-1H-benzo[d]imidazol-2(3H)-one]
+: PDE4 A1 inhibitory effect at 20 nM [1] | PDE4 B1 inhibitory effect at 20 nM [2] | PDE4 D2 inhibitory effect at 20 nM [3]

CCOc1nc([C@H](CS(C)(=O)=O)n2c(=O)[nH]c3cc(-c4ccc(F)cc4)ccc32)ccc1OC [Ex. 136, (R)-1-(1-(6-ethoxy-5-methoxypyridin-2-yl)-2-(methylsulfonyl)ethyl)-5-(4-fluorophenyl)-1H-benzo[d]imidazol-2(3H)-one]
+: PDE4 A1 inhibitory effect at 20 nM [1] | PDE4 B1 inhibitory effect at 20 nM [2] | PDE4 D2 inhibitory effect at 20 nM [3]

CCOc1nc([C@@H](CS(C)(=O)=O)n2c(=O)n(C)c3cc(-c4ccc(F)cc4)ccc32)ccc1OC [Ex. 137, (S)-1-(1-(6-ethoxy-5-methoxypyridin-2-yl)-2-(methylsulfonyl)ethyl)-3-methyl-5-(4-fluorophenyl)-1H-benzo[d]imidazol-2(3H) one]
+: PDE4 A1 inhibitory effect at 20 nM [1] | PDE4 B1 inhibitory effect at 20 nM [2] | PDE4 D2 inhibitory effect at 20 nM [3]

CCOc1nc([C@H](CS(C)(=O)=O)n2c(=O)n(C)c3cc(-c4ccc(F)cc4)ccc32)ccc1OC [Ex. 138, (R)-1-(1-(6-ethoxy-5-methoxypyridin-2-yl)-2-(methylsulfonyl)ethyl)-3-methyl-5-(4-fluorophenyl)-1H-benzo[d]imidazol-2(3H)-one]
+: PDE4 A1 inhibitory effect at 20 nM [1] | PDE4 B1 inhibitory effect at 20 nM [2] | PDE4 D2 inhibitory effect at 20 nM [3]
